*1 amine or outer side, *2 acyl side, *3 side chain or, on linkers, in order; H or OH if unused. Where a SMILES comes first, the peptide text is derived from it. Bridges are numbered along the chain shown (N, C = ends). [ ]: non-standard residue; d: D form. The star is where a group is joined. C20 diacid = O=C(O)CCCCCCCCCCCCCCCCCCC(=O)*; γGlu = O=C(O)[C@H](CCC(=O)[*:2])N[*:1]; Hyp = O=C(O)[C@@H]1C[C@@H](O)CN1; NMeI = CC[C@H](C)[C@H](NC)C(=O)O; Aad = N[C@@H](CCCC(=O)O)C(=O)O; Sar = CNCC(=O)O
What was measured:
[1] = Assessment of chemical stability (RP-HPLC normalized purity); assay type: physicochemical; conditions: for Normalized purity after 7 days, 40° C., pH 4: pH 4, 0.2 mg/ml; for Normalized purity after 7 days, 40° C., pH 4 / Normalized purity after 7 days, 40° C., pH 6 / Normalized purity after 7 days, 40° C., pH 7.5 / Normalized purity after 7 days, 40° C., pH 9: Table 1; for Normalized purity after 7 days, 40° C., pH 6: pH 6, 0.2 mg/ml; for Normalized purity after 7 days, 40° C., pH 7.5: pH 7.5, 0.2 mg/ml; for Normalized purity after 7 days, 40° C., pH 9: pH 9, 0.2 mg/ml
Description: Samples of each test peptide were dissolved in MilliQ™ water, and the pH of the solution was adjusted to pH 4, pH 6, pH 7.5 or pH 9, respectively, using either HCl or NaOH. The final peptide concentration was 0.2 mg/ml. Samples were placed in glass vials and incubated at 40° C. The samples were analyzed by RP-HPLC on a C8 column with gradient elution using an ammonium formate/water eluent system, or on a C18 column with gradient elution using a trifluoroacetic acid/water eluent system. The area-percentage (area-%) of the main peak after incubation time T=t (relative to time T=0) was determined by UV spectroscopy at 220 nm.
The purity was first determined as follows:
Purity(area-%)=(area of main peak/total area of all peaks)×100.
The purity was then normalized between time points by setting purity at time 0 (T=0) to 100 for each pH value for a given peptide, as follows:
Normalised area-% at time t (T=t)=[area-%(T=t)/area-%(T=0)]×100.
The normalized purity values in Table 1 were determined after 7 days of incubation.
The chemical stability assessment described in Example 6 was repeated for four pairs of compounds, each differing only by the presence or absence of an Asn-Asn (N—N) doublet at positions 21 and 22.

[2] = Assessment of physical stability (Thioflavin T fibrillation); assay type: physicochemical; set-up: key: FND = fibrillation not detected; FD = fibrillation detected; conditions: 1 mg/ml, 40° C., ThT; for Fibrillation pH 4.0 (Ac): 50 mM acetate buffer pH 4.0, 96 hours; for Fibrillation pH 7.0 (His): 50 mM histidine buffer pH 7.0, 96 hours; for Fibrillation pH 7.0 (Phos.): 50 mM phosphate buffer pH 7.0, 96 hours
Description: Solutions containing (i) 1 mg/ml of test peptide, 40 μM ThT and 50 mM phosphate (Ph) buffer (pH 7.0), (ii) 1 mg/ml of test peptide, 40 μM ThT and 50 mM histidine (His) buffer (pH 7.0), and (iii) 1 mg/ml of test peptide, 40 μM ThT and 50 mM acetate (Ac) buffer (pH 4.0), were loaded in a 96-well black fluorescence plate (clear bottom) in triplicate. Data were collected at fixed intervals of 10 min, each preceded by 300 s of automixing (agitation), over a period of 96 hours at 40° C. Physical stability, expressed as lag-time of fibril formation (in hours), was defined as the intersection between two linear regressions representing the initial stable phase and the growth phase.

| Compound | Normalized purity after 7 days, 40° C., pH 4 [1] | Normalized purity after 7 days, 40° C., pH 6 [1] | Normalized purity after 7 days, 40° C., pH 7.5 [1] | Normalized purity after 7 days, 40° C., pH 9 [1] | Fibrillation pH 4.0 (Ac) [2] | Fibrillation pH 7.0 (His) [2] | Fibrillation pH 7.0 (Phos.) [2] | Normalized purity pH 4 (Table 5) ([1]; pH 4, repeat of Example 6 for pairs with/without Asn-Asn at 21-22) | Normalized purity pH 6 (Table 5) ([1]; pH 6, repeat of Example 6 for pairs with/without Asn-Asn at 21-22) | Normalized purity pH 7.5 (Table 5) ([1]; pH 7.5, repeat of Example 6 for pairs with/without Asn-Asn at 21-22) | Normalized purity pH 9 (Table 5) ([1]; pH 9, repeat of Example 6 for pairs with/without Asn-Asn at 21-22) |
| --- | --- | --- | --- | --- | --- | --- | --- | --- | --- | --- | --- |
| CC[C@H](C)[C@@H](C(=O)N[C@@H](CC(C)C)C(=O)N[C@@H](CO)C(=O)N[C@@H](CO)C(=O)N[C@H](C(=O)N[C@@H](CCC(=O)O)C(=O)N[C@H](C(=O)NCC(=O)N[C@@H](CO)C(=O)N[C@@H](CC(N)=O)C(=O)N[C@H](C(=O)N1C[C@H](O)C[C@H]1C(N)=O)[C@@H](C)O)C(C)C)[C@@H](C)O)N(C)C(=O)[C@H](C)NC(=O)CN(C)C(=O)[C@H](Cc1ccccc1)NC(=O)[C@H](CO)NC(=O)[C@H](CO)NC(=O)[C@H](CCCNC(=N)N)NC(=O)[C@H](CCC(=O)O)NC(=O)[C@H](CC(C)C)NC(=O)[C@H](Cc1ccccc1)NC(=O)[C@H](Cc1c[nH]cn1)NC(=O)[C@H](C)NC(=O)[C@H](CC(C)C)NC(=O)[C@H](CCCNC(=N)N)NC(=O)[C@H](CCC(=O)O)NC(=O)[C@@H](NC(=O)[C@H](C)NC(=O)[C@@H]1CSSC[C@H](NC(=O)[C@H](CCCNC(=N)N)NC(=O)CC[C@H](NC(=O)CCCCCCCCCCCCCCCCCCC(=O)O)C(=O)O)C(=O)NCC(=O)N[C@@H]([C@@H](C)O)C(=O)N[C@@H](C)C(=O)N[C@@H]([C@@H](C)O)C(=O)N1)[C@@H](C)O [Compound 8, [19CD]-isoGlu-R-C( )-GTAT-C( )-ATERLAHFLERSSF-Gly(Me)-A-Ile(Me)-LSSTEVGSNT-Hyp-NH2] ({C20 diacid-γGlu}-RCGTATCATERLAHFLERSSF[Sar]A[NMeI]LSSTEVGSNT[Hyp]-NH2; disulfide 2-7) | A (A = >90%) | B (B = 70-90%) | A (A = >90%) | A (A = >90%) | FND | FND | FND |  |  |  |  |
| CC[C@H](C)[C@@H](C(=O)N[C@@H](CC(C)C)C(=O)N[C@@H](CO)C(=O)N[C@@H](CO)C(=O)N[C@H](C(=O)N[C@@H](CCC(=O)O)C(=O)N[C@H](C(=O)NCC(=O)N[C@@H](CO)C(=O)N[C@@H](CCCC(=O)O)C(=O)N[C@H](C(=O)N1C[C@H](O)C[C@H]1C(N)=O)[C@@H](C)O)C(C)C)[C@@H](C)O)N(C)C(=O)[C@H](C)NC(=O)CN(C)C(=O)[C@H](Cc1ccccc1)NC(=O)[C@H](CO)NC(=O)[C@H](CO)NC(=O)[C@H](CCCNC(=N)N)NC(=O)[C@@H](NC(=O)[C@H](CC(C)C)NC(=O)[C@H](Cc1ccccc1)NC(=O)[C@H](Cc1c[nH]cn1)NC(=O)[C@H](C)NC(=O)[C@H](CC(C)C)NC(=O)[C@H](CCCNC(=N)N)NC(=O)[C@H](CCC(=O)O)NC(=O)[C@@H](NC(=O)[C@H](C)NC(=O)[C@@H]1CSSC[C@H](NC(=O)[C@H](CCCNC(=N)N)NC(=O)CC[C@H](NC(=O)CCCCCCCCCCCCCCCCCCC(=O)O)C(=O)O)C(=O)NCC(=O)N[C@@H]([C@@H](C)O)C(=O)N[C@@H](C)C(=O)N[C@@H]([C@@H](C)O)C(=O)N1)[C@@H](C)O)[C@@H](C)O [Compound 12, [19CD]-isoGlu-R-C( )-GTAT-C( )-ATERLAHFLTRSSF-Gly(Me)-A-Ile(Me)-LSSTEVGS-Aad-T-Hyp-NH2] ({C20 diacid-γGlu}-RCGTATCATERLAHFLTRSSF[Sar]A[NMeI]LSSTEVGS[Aad]T[Hyp]-NH2; disulfide 2-7) | A (A = >90%) | A (A = >90%) | B (B = 70-90%) | B (B = 70-90%) | FND | FD | FD |  |  |  |  |
| CC[C@H](C)[C@@H](C(=O)N[C@@H](CC(C)C)C(=O)N[C@@H](CO)C(=O)N[C@@H](CO)C(=O)N[C@H](C(=O)N[C@@H](CCC(=O)O)C(=O)N[C@H](C(=O)NCC(=O)N[C@@H](CO)C(=O)N[C@@H](CCC(=O)O)C(=O)N[C@H](C(=O)N1CCC[C@H]1C(N)=O)[C@@H](C)O)C(C)C)[C@@H](C)O)N(C)C(=O)[C@H](C)NC(=O)CN(C)C(=O)[C@H](Cc1ccccc1)NC(=O)[C@H](CCCNC(=N)N)NC(=O)[C@H](Cc1c[nH]cn1)NC(=O)[C@H](CC(C)C)NC(=O)[C@H](Cc1ccccc1)NC(=O)[C@H](Cc1c[nH]cn1)NC(=O)[C@H](C)NC(=O)[C@H](CC(C)C)NC(=O)[C@H](CCCNC(=N)N)NC(=O)[C@H](CCC(N)=O)NC(=O)[C@@H](NC(=O)[C@H](C)NC(=O)[C@@H]1CSSC[C@H](NC(=O)[C@H](CCCNC(=N)N)NC(=O)CC[C@H](NC(=O)CCCCCCCCCCCCCCCCCCC(=O)O)C(=O)O)C(=O)N[C@@H](CC(N)=O)C(=O)N[C@@H]([C@@H](C)O)C(=O)N[C@@H](C)C(=O)N[C@@H]([C@@H](C)O)C(=O)N1)[C@@H](C)O [Compound 14, [19CD]-isoGlu-R-C( )-NTAT-C( )-ATQRLAHFLHRF-Gly(Me)-A-Ile(Me)-LSSTEVGSETP-NH2] ({C20 diacid-γGlu}-RCNTATCATQRLAHFLHRF[Sar]A[NMeI]LSSTEVGSETP-NH2; disulfide 2-7) | A (A = >90%) | A (A = >90%) | A (A = >90%) | A (A = >90%) | FND | FD | FND |  |  |  |  |
| CC[C@H](C)[C@H](NC(=O)[C@@H]1CCCN1C(=O)CNC(=O)[C@H](Cc1ccccc1)NC(=O)[C@H](CC(N)=O)NC(=O)[C@H](CC(N)=O)NC(=O)[C@H](CO)NC(=O)[C@H](CO)NC(=O)[C@H](Cc1c[nH]cn1)NC(=O)[C@H](Cc1c[nH]cn1)NC(=O)[C@H](CC(C)C)NC(=O)[C@H](Cc1ccccc1)NC(=O)[C@H](CCC(=O)O)NC(=O)[C@H](C)NC(=O)[C@H](CC(C)C)NC(=O)[C@H](CCCNC(=N)N)NC(=O)[C@H](CCC(N)=O)NC(=O)[C@@H](NC(=O)[C@H](C)NC(=O)[C@@H]1CSSC[C@H](NC(=O)[C@H](CCCNC(=N)N)NC(=O)CC[C@H](NC(=O)CCCCCCCCCCCCCCCCCCC(=O)O)C(=O)O)C(=O)N[C@@H](CC(N)=O)C(=O)N[C@@H]([C@@H](C)O)C(=O)N[C@@H](C)C(=O)N[C@@H]([C@@H](C)O)C(=O)N1)[C@@H](C)O)C(=O)N[C@@H](CC(C)C)C(=O)N1CCC[C@H]1C(=O)N1CCC[C@H]1C(=O)N[C@H](C(=O)N[C@@H](CC(N)=O)C(=O)N[C@H](C(=O)NCC(=O)N[C@@H](CO)C(=O)N[C@@H](CC(N)=O)C(=O)N[C@H](C(=O)N1CCC[C@H]1C(N)=O)[C@@H](C)O)C(C)C)[C@@H](C)O [NN96, N-α-[(S)-4-carboxy-4-(19-carboxynonadecanoylamino)butyryl]-[Arg1, Glu14, His17, Pro37]-pramlintide-NH2, reference compound] ({C20 diacid-γGlu}-RCNTATCATQRLAEFLHHSSNNFGPILPPTNVGSNTP-NH2; disulfide 2-7) | A (A = >90%) | A (A = >90%) | B (B = 70-90%) | B (B = 70-90%) | FND | FD | FD | A (A = >90%) | A (A = >90%) | B (B = 70-90%) | B (B = 70-90%) |

Reference: patent US20210115104A1, “AMYLIN ANALOGUES” (Zealand Pharma A/S, priority 2015, published 2021)
